Source: patent US10669238B2, “Irreversible bruton's tyrosine kinase inhibitor” (HEFEI INSTITUTES OF PHYSICAL SCIENCE, CHINESE ACADEMY OF …, priority 2016, dated 2020)

Target: BTK protein kinase (Homo sapiens, UniProt Q06187)
Test: In vitro enzymatic activity against BTK (ADP-Glo)
Type: biochemical
Settings: compound with BTK 4 hours at room temperature; ATP 10 μM, 37° C. 1 hour; values in nM
Method: In vitro enzymatic activity of the compounds against BTK was determined in a experimental assay of in vitro enzymatic activity using […] kit (purchased from Progema, USA).
9 μL of BTK protein kinase (at a concentration of 1.5 ng/μL) was used to react with compounds (1 μL) shown in the following table that were diluted three times in gradient at room temperature for 4 hours (the final concentration of the compound being 10 μM, 3 μM, 1 μM, 0.3 μM, 0.1 μM, 0.03 μM, 0.01 μM, 0.003 μM);
2 μL of ATP and 3 μL of the substrate Poly(4:1 Glu, Tyr)Peptide (Promega, USA) (the final concentrations being 10 μM and 0.2 μg/μL, respectively) were added to allow reaction at 37° C. for 1 hour;
5 μL of BTK kinase solution after reaction was taken and added into 5 μL of ADP-Glo™ (Promega, USA) reagent to allow reaction at room temperature for 40 mins so as to terminate the kinase reaction and exhaust the remaining ATP;
10 μL kinase detecting reagent was added to convert ADP to ATP, and newly synthesized ATP was detected using coupled luciferase/[…] reaction, then the IC50 values were calculated by using a plotting method based on the Envision reading.

Chain of BTK protein kinase (Q06187 whole entry): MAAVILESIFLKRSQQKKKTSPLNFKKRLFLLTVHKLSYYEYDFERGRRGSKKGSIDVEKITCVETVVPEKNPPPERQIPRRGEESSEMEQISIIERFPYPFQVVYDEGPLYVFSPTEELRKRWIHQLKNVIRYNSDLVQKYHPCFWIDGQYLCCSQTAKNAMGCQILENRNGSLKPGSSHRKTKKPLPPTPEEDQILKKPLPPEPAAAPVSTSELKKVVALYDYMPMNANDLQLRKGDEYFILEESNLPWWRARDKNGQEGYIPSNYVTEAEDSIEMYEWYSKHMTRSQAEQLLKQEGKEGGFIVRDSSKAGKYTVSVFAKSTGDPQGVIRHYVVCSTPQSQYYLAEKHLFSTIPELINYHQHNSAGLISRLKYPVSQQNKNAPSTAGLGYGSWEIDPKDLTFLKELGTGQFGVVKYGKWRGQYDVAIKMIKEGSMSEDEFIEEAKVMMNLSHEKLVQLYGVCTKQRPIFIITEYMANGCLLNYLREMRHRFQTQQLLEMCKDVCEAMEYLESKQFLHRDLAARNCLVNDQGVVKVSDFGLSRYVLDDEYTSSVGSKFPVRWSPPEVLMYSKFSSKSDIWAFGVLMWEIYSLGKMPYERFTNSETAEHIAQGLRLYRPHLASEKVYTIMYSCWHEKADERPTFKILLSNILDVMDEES

| Compound | IC50 |
| --- | --- |
| C=CC(=O)Nc1cc(Nc2cc(-c3cccc(NC(=O)c4ccc(C(C)(C)C)cc4)c3C)cn(C)c2=O)ccc1C(=O)N(C)C [Compound 28, 2-acrylamide-4-((5-(3-(4-(tert-butyl)benzamide)-2-methylphenyl)-1-methyl-2-oxo-1,2-dihydropyridin-3-yl)amino)-N,N-dimethylbenzoylamide] | 25 nM |
| C=CC(=O)Nc1cc(Nc2cc(-c3cccc(NC(=O)c4ccc(C(C)(C)C)cc4)c3C)cn(C)c2=O)ccc1C(=O)N1CCN(C(=O)OC(C)(C)C)CC1 [Compound 38, tertbutyl 4-(2-acrylamide-4-((5-(3-(4-(tert-butyl)benzamide)-2-methylphenyl)-1-methyl-2-oxo-1,2-dihydropyridin-3-yl)amino)benzoyl)piperazin-1-carboxylate] | 85 nM |
| C=CC(=O)Nc1cc(Nc2cc(-c3cccc(NC(=O)c4ccc5c(c4)OCO5)c3C)cn(C)c2=O)ccc1C(=O)N1CCOCC1 [Compound 18, N-(3-(5-((3-acrylamide-4-(morpholin-4-carbonyl)phenyl)amino)-1-methyl-6-oxo-1,6-dihydropyridin-3-yl)-2-methylphenyl)-benzo[d][1,3]dioxolanyl-5-carboxamide] | 187 nM |
| CCC(=O)Nc1cc(Nc2cc(-c3cccc(NC(=O)c4ccc(C(C)(C)C)cc4)c3C)cn(C)c2=O)ccc1C(=O)N1CCCC1 [Compound 33, N-(3-(5-((3-propanamide-4-(pyrrolidin-1-carbonyl)phenyl)amino)-1-methyl-6-oxo-1,6-dihydropyridin-3-yl)-2-methylphenyl)-4-(tert-butyl)benzamide] | 165 nM |

Continued, values first:

| IC50 | Compound |
| --- | --- |
| 24.9 nM | C=CC(=O)Nc1cc(Nc2cc(-c3cccc(NC(=O)c4ccc(N(C)C)cc4)c3C)cn(C)c2=O)ccc1N1CCOCC1 [Compound 73] |
| 816 nM | C=CC(=O)Nc1cc(Nc2cc(-c3cccc(NC(=O)c4cccc(OC)c4)c3C)cn(C)c2=O)ccc1C(=O)N1CCOCC1 [Compound 59, N-(3-(5-((3-acrylamide-4-(morpholin-4-carbonyl)phenyl)amino)-1-methyl-6-oxo-1,6-dihydropyridin-3-yl)-2-methylphenyl)-3-methoxy Benzoylamide] |
| 25 nM | C=CC(=O)Nc1cc(Nc2cc(-c3cccc(NC(=O)c4cc5c(s4)CCCC5)c3C)cn(C)c2=O)ccc1N1CCN(CC)CC1 [Compound 76, N-(3-(5-((3-acrylamide-4-(4-ethylpiperazin-1-yl)phenyl)amino)-1-methyl-6-oxo-1,6-dihydropyridin-3-yl)-2-methylphenyl)-4,5,6,7-tetrahydrobenzo[b]thiophene-2-carboxamide] |
| 119 nM | C=CC(=O)Nc1cc(Nc2cc(-c3cccc(NC(=O)c4cc5c(s4)CCCC5)c3C)cn(C)c2=O)ccc1N1CCOCC1 [Compound 78, N-(3-(5-((3-acrylamide-4-morpholinophenyl)amino)-1-methyl-6-oxo-1,6-dihydropyridin-3-yl)-2-methylphenyl)4,5,6,7-tetrahydrobenzo[b]thiophene-2-carboxamide] |
| 800 nM | C=CC(=O)Nc1cc(Nc2cc(-c3cccc(NC(=O)c4ccc(C)c(C(F)(F)F)c4)c3C)cn(C)c2=O)ccc1C(=O)N1CCOCC1 [Compound 63, N-(3-(5-((3-acrylamide-4-(morpholin-4-carbonyl)phenyl)amino)-1-methyl-6-oxo-1,6-dihydropyridin-3-yl)-2-methylphenyl)-4-methyl-3-(trifluoromethyl)benzoylamide] |
| 586 nM | C=CC(=O)Nc1cc(Nc2cc(-c3cccc(NC(=O)c4ccc(N(C)C)cc4)c3C)cn(C)c2=O)ccc1C(=O)N1CCC(OC)CC1 [Compound 52, N-(3-(5-((3-acrylamide-4-(4-methoxypiperidin-1-carbonyl)phenyl)amino)-1-methyl-6-oxo-1,6-dihydropyridin-3-yl)-2-methylphenyl)-4-(dimethylamino)benzoylamide] |
